Results on four molecules are retold here after PMC10004634 (PLOS ONE, 2023).

The structures appear in SMILES notation. Read-outs that look alike come from different tables or passages of the source.

Some targets named below: MET(M1250T) (Homo sapiens, UniProt P08581, M1250T); FLT1 (Homo sapiens, UniProt P17948); AKT3 (Homo sapiens, UniProt Q9Y243); MARK2 (Homo sapiens, UniProt Q7KZI7); ABL2 (Homo sapiens, UniProt P42684).
What all share (test): biochemical
Parameters in all cases: KINOMEscan scanMAX competition binding, DNA-tagged kinases, qPCR read-out, percent control at 300 nM
Background: In qPCR the cycle at which signal appears reflects the starting amount.

In the next assay the target is T1, GAK (Homo sapiens, UniProt O14976).
T1 sequence (O14976 1-1311): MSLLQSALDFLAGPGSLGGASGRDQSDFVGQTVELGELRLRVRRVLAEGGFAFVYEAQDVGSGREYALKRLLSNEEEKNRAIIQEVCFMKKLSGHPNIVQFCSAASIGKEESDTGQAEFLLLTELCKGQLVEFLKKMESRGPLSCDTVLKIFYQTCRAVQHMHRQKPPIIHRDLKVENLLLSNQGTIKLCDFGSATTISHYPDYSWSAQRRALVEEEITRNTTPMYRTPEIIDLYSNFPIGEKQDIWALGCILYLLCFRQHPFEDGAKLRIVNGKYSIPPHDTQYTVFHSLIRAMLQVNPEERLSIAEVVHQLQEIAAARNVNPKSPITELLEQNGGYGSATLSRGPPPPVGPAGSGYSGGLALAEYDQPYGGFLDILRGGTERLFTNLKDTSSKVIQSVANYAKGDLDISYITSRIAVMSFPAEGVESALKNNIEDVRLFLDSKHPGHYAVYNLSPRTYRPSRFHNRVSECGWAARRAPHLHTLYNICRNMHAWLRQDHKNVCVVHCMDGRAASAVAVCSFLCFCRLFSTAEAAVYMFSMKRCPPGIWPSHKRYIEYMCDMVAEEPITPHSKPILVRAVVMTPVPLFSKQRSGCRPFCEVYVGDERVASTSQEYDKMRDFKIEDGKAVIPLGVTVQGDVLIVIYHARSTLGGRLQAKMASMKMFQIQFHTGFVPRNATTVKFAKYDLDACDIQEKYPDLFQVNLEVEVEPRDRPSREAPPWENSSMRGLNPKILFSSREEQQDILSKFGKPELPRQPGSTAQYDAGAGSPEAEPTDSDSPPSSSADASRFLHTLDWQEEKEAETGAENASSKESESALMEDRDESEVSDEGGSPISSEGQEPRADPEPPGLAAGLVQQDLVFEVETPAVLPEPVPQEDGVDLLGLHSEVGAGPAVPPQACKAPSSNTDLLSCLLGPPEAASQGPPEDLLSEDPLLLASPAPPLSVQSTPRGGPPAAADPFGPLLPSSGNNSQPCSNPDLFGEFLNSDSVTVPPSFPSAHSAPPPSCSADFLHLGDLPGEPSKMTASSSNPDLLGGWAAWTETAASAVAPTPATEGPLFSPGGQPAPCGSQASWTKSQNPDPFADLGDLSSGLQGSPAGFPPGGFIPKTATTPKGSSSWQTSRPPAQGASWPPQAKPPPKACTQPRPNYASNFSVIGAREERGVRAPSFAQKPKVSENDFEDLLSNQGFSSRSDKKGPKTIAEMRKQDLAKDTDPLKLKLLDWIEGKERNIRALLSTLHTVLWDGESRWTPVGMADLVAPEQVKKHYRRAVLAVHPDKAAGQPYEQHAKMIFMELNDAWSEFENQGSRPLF

The target in a further assay is T2, FLT3(K663Q) (Homo sapiens, UniProt P36888, K663Q).
T2 sequence (P36888 1-993 K663Q): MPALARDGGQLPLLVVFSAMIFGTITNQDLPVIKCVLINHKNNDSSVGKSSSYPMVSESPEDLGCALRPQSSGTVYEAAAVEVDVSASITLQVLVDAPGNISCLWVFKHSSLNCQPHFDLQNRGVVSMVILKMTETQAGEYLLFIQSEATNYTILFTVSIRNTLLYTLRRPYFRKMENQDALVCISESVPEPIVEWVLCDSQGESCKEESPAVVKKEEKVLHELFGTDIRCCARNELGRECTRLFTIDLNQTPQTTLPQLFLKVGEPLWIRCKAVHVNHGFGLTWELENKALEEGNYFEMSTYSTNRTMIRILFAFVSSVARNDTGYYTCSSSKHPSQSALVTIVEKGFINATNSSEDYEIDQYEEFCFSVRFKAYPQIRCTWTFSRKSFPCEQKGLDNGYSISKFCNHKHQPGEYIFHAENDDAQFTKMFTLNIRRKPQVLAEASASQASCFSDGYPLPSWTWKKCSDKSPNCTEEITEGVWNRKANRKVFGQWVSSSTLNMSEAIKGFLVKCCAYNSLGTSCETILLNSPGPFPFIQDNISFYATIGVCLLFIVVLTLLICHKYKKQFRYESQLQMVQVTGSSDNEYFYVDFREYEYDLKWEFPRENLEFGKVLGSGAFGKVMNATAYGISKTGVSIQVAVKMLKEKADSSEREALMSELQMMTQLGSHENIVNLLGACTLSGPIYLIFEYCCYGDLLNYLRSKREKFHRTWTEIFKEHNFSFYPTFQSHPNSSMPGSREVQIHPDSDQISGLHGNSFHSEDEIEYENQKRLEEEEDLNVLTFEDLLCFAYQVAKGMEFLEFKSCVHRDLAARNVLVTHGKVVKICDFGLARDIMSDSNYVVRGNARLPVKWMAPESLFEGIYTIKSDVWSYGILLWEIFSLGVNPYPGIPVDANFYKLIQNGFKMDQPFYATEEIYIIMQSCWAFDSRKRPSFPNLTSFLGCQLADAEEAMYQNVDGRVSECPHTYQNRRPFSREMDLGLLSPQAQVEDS

[1] abbreviates: read-out: Percent control / Tirabrutinib.
Setting [2] is: read-out: Percent control / Acalabrutinib.
Where [3] appears, read: read-out: Percent control / Ibrutinib.
Where [4] appears, read: read-out: Percent control / Zanubrutinib.

MET(M1250T), sequence (P08581 whole entry M1250T): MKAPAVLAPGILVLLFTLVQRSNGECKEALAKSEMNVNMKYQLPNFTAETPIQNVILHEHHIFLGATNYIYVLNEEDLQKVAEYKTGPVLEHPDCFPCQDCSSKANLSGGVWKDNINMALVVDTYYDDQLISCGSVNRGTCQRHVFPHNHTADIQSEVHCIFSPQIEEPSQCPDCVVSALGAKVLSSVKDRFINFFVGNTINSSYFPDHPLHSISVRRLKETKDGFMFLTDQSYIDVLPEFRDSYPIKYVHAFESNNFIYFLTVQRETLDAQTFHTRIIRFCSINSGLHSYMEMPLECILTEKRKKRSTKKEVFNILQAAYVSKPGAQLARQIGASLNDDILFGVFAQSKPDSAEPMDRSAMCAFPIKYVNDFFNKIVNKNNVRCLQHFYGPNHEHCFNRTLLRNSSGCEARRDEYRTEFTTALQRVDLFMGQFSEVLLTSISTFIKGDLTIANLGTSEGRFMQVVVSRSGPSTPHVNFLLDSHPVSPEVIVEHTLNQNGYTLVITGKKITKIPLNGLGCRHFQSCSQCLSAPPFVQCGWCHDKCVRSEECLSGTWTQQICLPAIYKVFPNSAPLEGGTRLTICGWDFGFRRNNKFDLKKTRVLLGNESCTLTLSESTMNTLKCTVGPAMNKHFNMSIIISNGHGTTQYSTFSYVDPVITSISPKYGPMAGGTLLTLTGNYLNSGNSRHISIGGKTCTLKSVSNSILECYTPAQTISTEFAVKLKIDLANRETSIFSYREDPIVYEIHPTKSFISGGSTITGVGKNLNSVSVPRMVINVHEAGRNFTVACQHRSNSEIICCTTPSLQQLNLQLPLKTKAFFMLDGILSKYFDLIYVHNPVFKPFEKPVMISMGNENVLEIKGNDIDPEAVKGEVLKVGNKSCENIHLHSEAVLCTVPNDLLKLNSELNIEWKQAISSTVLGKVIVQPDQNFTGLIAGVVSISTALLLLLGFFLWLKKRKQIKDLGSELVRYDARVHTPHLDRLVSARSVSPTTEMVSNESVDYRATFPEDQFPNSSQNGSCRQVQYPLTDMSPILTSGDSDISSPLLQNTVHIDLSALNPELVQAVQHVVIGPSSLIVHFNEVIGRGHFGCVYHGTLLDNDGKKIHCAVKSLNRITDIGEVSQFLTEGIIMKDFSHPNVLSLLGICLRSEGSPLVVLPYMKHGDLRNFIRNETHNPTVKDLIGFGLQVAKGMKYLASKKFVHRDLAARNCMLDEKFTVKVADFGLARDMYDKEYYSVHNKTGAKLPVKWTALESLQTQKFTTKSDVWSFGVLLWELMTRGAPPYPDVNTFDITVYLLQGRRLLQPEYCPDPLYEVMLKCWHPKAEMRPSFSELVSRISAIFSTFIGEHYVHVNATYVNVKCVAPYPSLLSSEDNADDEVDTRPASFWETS
AKT3, sequence (Q9Y243 whole entry): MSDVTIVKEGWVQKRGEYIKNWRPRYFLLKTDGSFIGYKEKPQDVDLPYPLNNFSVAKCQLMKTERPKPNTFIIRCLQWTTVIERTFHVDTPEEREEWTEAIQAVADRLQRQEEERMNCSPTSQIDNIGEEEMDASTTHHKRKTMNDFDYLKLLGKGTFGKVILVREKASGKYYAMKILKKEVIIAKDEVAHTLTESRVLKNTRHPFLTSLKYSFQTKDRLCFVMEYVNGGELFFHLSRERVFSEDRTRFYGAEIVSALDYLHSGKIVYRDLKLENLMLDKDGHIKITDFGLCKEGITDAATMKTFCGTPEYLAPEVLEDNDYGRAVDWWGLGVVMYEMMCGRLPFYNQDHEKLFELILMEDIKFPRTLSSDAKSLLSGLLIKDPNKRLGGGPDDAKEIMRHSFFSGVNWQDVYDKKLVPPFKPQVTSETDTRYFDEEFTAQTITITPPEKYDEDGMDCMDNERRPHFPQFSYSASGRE
MARK2, sequence (Q7KZI7 whole entry): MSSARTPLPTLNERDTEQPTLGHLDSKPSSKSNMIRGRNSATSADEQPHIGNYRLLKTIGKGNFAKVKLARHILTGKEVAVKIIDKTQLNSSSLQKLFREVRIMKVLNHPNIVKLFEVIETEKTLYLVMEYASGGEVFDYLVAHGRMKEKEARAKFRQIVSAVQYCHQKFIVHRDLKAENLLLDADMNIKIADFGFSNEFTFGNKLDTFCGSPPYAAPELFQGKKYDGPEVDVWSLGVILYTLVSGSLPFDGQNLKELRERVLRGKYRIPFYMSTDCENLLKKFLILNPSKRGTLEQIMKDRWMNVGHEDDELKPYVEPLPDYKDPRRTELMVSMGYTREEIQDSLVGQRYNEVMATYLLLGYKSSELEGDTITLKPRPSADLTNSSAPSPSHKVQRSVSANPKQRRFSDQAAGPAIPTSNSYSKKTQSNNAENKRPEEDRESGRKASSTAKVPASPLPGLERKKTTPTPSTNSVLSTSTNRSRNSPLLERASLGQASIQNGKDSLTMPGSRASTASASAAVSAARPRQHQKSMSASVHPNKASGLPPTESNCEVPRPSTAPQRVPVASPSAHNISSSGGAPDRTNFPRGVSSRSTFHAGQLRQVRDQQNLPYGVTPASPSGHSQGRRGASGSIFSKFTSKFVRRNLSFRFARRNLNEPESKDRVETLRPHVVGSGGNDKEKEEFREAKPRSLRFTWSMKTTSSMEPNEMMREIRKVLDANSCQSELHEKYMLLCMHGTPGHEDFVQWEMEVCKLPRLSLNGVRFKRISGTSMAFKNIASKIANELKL
ABL2, sequence (P42684 whole entry): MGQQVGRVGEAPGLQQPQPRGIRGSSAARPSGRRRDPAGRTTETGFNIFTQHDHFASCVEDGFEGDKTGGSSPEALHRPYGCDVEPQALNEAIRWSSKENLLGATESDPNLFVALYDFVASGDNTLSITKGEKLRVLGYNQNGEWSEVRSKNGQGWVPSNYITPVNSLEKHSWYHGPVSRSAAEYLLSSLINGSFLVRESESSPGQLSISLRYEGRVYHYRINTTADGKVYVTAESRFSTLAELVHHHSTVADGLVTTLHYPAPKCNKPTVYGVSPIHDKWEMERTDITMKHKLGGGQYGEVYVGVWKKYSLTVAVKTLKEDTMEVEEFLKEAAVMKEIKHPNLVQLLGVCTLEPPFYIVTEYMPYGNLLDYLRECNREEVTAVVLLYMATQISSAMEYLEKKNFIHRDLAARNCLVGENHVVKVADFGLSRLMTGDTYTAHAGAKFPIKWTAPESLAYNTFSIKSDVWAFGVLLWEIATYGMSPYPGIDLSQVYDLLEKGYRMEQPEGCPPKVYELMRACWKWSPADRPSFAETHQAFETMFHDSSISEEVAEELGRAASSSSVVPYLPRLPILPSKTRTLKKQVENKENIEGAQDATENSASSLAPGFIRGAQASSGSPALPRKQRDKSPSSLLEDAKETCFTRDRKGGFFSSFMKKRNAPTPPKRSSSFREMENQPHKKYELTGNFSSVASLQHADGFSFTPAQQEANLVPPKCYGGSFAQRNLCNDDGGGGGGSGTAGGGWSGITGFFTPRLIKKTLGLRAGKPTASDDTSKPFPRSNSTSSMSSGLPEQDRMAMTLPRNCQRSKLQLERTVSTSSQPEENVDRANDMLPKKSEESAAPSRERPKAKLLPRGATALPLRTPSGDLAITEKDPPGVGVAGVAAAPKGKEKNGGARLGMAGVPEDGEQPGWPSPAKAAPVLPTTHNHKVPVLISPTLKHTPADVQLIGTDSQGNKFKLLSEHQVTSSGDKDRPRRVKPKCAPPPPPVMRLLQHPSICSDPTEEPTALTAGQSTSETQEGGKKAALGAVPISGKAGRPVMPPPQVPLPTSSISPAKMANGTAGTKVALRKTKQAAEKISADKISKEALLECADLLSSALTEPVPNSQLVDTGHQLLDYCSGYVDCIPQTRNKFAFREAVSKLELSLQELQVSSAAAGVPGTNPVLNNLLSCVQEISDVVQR

On to `CC#CC(=O)N1CC[C@@H](n2c(=O)n(-c3ccc(Oc4ccccc4)cc3)c3c(N)ncnc32)C1` [Tirabrutinib], for which the remaining binding at 0.3 µM at MET(M1250T) (setting [1]) was 93%; at FLT1 (setting [1]), 74%; at AKT3 (setting [1]), 83%; at GAK (setting [1]) it was 95%.

Consider `CC#CC(=O)N1CCC[C@H]1c1nc(-c2ccc(C(=O)Nc3ccccn3)cc2)c2c(N)nccn12` [Acalabrutinib], for which the remaining binding at 0.3 µM came out at 93% at MET(M1250T) (setting [2]); 89% on FLT1 (setting [2]); 95% on AKT3 (setting [2]); 92% at GAK (setting [2]); 91% on MARK2 (setting [2]); 87% on FLT3(K663Q) (setting [2]). In addition, on ABL2 (setting [2]), the remaining binding at 0.3 µM stood at 97%.

Turning to `C=CC(=O)N1CCC[C@@H](n2nc(-c3ccc(Oc4ccccc4)cc3)c3c(N)ncnc32)C1` [Ibrutinib], the remaining binding at 0.3 µM was 82% on FLT1 (setting [3]), 87% at MARK2 (setting [3]), 45% on FLT3(K663Q) (setting [3]) and 82% on ABL2 (setting [3]).

For the molecule `C=CC(=O)N1CCC([C@@H]2CCNc3c(C(N)=O)c(-c4ccc(Oc5ccccc5)cc4)nn32)CC1` [Zanubrutinib], the remaining binding at 0.3 µM on MET(M1250T) (setting [4]) was found to be 100%; on AKT3 (setting [4]), 84%; on GAK (setting [4]) it was 87%; at MARK2 (setting [4]) it was 90%; on FLT3(K663Q) (setting [4]), 61%; at ABL2 (setting [4]), 77%.
